What was measured:
[1] = test system: external segments of photoreceptor cells; assay: Ascorbate-induced peroxidation of external segments of photoreceptor cells; assay type: biochemical, pig; settings: for Inhibition: 30 min of reacting; for Concentration of TBK-active products: 17 mM compound, 0.5 mM ascorbic acid
Description: The external segments of photoreceptor cells are obtained from pig retinas according to standard procedure, using methods of differential centrifuging in a saccharose density gradient. […] Subsequently, the process was stopped by 15% trichloroacetic acid, and the concentration of TBK-active products has been determined. Samples being free of compound Ic were used as a control.
In these experiments a comparison of the speed of ascorbate-induced peroxidation of external segments of photoreceptor cells of pig eyes has been carried out, said comparison being determined with respect to the accumulation of TBK-active products in the presence of different compound I salts.

[2] = test system: acute myocardial ischemia (occlusion of the coronary artery of rats); assay: Sizes of necrosis and ischemia zones in acute myocardial ischemia; assay type: in vivo, rat; settings: rats, within 4 hours after occlusion of the coronary artery
Description: The experiments are carried out with non-pedigree male rats having a weight of 250-300 g, which have been anesthetized with sodium ethaminale (40 mg/kg intraperitoneally). A myocardial infarction was modeled for animals, transferred to controlled breathing, by ligation of a descending branch of the left-hand coronary artery to a level of the lower edge of an auricula atrii.
The sizes of necrosis zones and ischemia zones have been determined within 4 hours after occlusion of the coronary artery by a differential indicator method, the principle of which is based on separate quantitative determination of Evans' blue (indicator of an ischemia zone) and red phormazane (indicator of an necrosis zone).

[3] = test system: lipofuscin induced cardiolipin photoperoxidation; assay: Inhibition of lipofuscin induced cardiolipin liposome photoperoxidation; assay type: biochemical, human; settings: for Concentration of TBK-active products / Inhibition: 2 mM compound
Description: Liposomes are prepared from methanolic solution of cardiolipin (initial concentration: 5 mg/ml) by evaporation of methanol and solubilization of cardiolipin in a phosphate buffer. A mixture comprising a suspension of liposomes and lipofuscin granules, isolated from tissue of a retinal pigmentary epithelium of a human eye, is subjected to irradiation with intensive blue light under constant stirring. Concentration of lipid peroxidation products (TBK-active products) is determined after 20, 40, 60 and 90 minutes. The experimental sample contained 2 mM of a solution of compound Ic, or 2 mM of a solution of mexydole.

[4] = Antiradical activity by chemiluminescence (rate constant k7); assay type: physicochemical; settings: speed constant of reaction with ethyl-benzene peroxide radicals
Description: The efficiency of 3-hydroxypyridine derivatives as inhibitors of free radical reactions was determined by hemiluminescent method by means of measurement of speed constants of their reaction with ethyl-benzene k7 peroxide radicals.
The measurements of intensity of chemiluminescence (HL) have been carried out with an apparatus CNK-7, designed and made by IHF RAN USSR. A photomultiplier FAU-38 is used as an optical receiver. The fixed concentration of radicals during oxidation of […] (cumole) is controlled by an initiator being azo-bis-isobutyronitrile.
In order to increase HL emission the activator chelate Eu (europium tristenoyl triphtoroacetonate with 1,10-phenatroline) has been used that has allowed to conduct measurements at low speed values of radical initiation (W1=10^−8-10^−9 mol/I.s.) and, therefore, at small amounts of added sample. A weighed amount of samples studied was diluted in an suitable solvent (chlorobenzene or acetonitrile) and a small amount of the prepared solution (0.1-0.25 ml) was added to the reaction mixture (5-6 ml), arranged in a temperature-controlled reaction vessel of the HL-device. The change of emission intensity was recorded.

Cc1cc(C)c(O)c(C)n1.O=C(O)CC(=O)O [Compound Ib, 2,4,6-trimethyl-3-oxypyridine malonate]
Speed of accumulation of TBK-active products for 30 min of reacting ([1]; compound 44 mM): 0.23 nmol/mg | Inhibition ([1]; compound 44 mM): 70% | Concentration of TBK-active products ([1]; response time 0 min): 1 relative units | Concentration of TBK-active products ([1]; response time 15 min): 2.70 relative units | Concentration of TBK-active products ([1]; response time 30 min): 5.09 relative units

O=C(NCCO[N+](=O)[O-])c1cccnc1 [Nicorandile]
Ratio of necrosis zone to ischemia zone ([2]; 12 mg/kg): 42 ± 5.4% | Ratio of necrosis zone to total mass of the myocardium ([2]; 12 mg/kg): 10 ± 1.6%

CCc1ccc(O)c(C)n1.O=C(O)CCC(=O)O [Mexydole, 2-methyl-6-ethyl-3-hydroxypyridine succinate, reference compound]
Concentration of TBK-active products ([3]; radiation time 0 min): 1.83 nmol/mg lipid | Inhibition ([3]; radiation time 0 min): 0% | Concentration of TBK-active products ([3]; radiation time 20 min): 2.84 nmol/mg lipid | Inhibition ([3]; radiation time 20 min): 5% | Concentration of TBK-active products ([3]; radiation time 40 min): 3.5 nmol/mg lipid | Inhibition ([3]; radiation time 40 min): 0% | Concentration of TBK-active products ([3]; radiation time 60 min): 4.5 nmol/mg lipid | Inhibition ([3]; radiation time 60 min): 0% | Concentration of TBK-active products ([3]; radiation time 90 min): 5.0 nmol/mg lipid | Inhibition ([3]; radiation time 90 min): 7% | Inhibiting / protective effect regarding phototoxic action of lipofuscin granules ([3]; result in words): practically did not show an inhibiting effect | Ratio of necrosis zone to ischemia zone ([2]; 26 mg/kg): 46 ± 5.6% | Ratio of necrosis zone to total mass of the myocardium ([2]; 26 mg/kg): 8 ± 1.4% | k7 × 10^−4 [4]: 4.5 l/mol × sec

Cc1cc(C)c(O)c(C)n1.O=C(O)C(=O)O [Compound Ia, 2,4,6-trimethyl-3-oxypyridine oxalate]
Speed of accumulation of TBK-active products for 30 min of reacting ([1]; compound 44 mM): 0 nmol/mg | Inhibition ([1]; compound 44 mM): 100%

Cc1cc(C)c(O)c(C)n1.O=C(O)CC(O)C(=O)O [Compound Id, 2,4,6-trimethyl-3-oxypyridine malate]
Speed of accumulation of TBK-active products for 30 min of reacting ([1]; compound 43 mM): 0.1 nmol/mg | Inhibition ([1]; compound 43 mM): 87%

— patent US20110045065A1, “SUBSTANCE HAVING ANTIOXIDANT, GEROPROTECTIVE AND ANTI-ISCHEMIC ACTIVITY AND METHOD FOR THE PREPARATION THEREOF” (priority 2005, published 2011)
